The text below walks through data of patent publication US20120309798A1, “Tumour Treatment Agents and Method” (Vivolux AB, priority 2009, published 2012).

The test system of data set [1] is hollow fiber cultures of PHTC from ovarian carcinoma patients. Description: In vivo hollow fiber assay, PHTC ovarian carcinoma. The arrangement: species or system human. The note with it: two PHTC cultures in fibers s.c. in NMRI male mice, single dose 760 μg/mouse s.c., 6 days; P<0.05 and P<0.01. How it is done: In vivo studies. Cells from two ovarian carcinoma patients and the cell line CEM were cultured inside semi-permeable polyvinylidene fluoride fibers and assessed by the hollow fiber assay (Friberg et al., 2005; Jonsson et al., 2000). The fibers were implanted subcutaneously into NMRI male mice (Scanbur, Sollentuna Sweden), which were treated with a single dose (0.76 mg/mouse) of VLX50 subcutaneously, or vehicle only (n=animals/group). Fibers were retrieved after 6 days and cell density evaluated (FIG. 3a) using the MTT (3-[4,5-dimethylthiazol-2-yl]-2,5-diphenyltetrazolium bromide)-assay (Alley et al. 1988). The method is based on the conversion of MTT to blue formazan crystals by living cells. The formazan was extracted by DMSO as previously described (Jonsson et al. 2000), and optical density (OD) read at 570 nm. Cell density for each fiber on retrieval day was expressed as net growth, defined as (OD retrieval day—OD implantation day)/OD implantation day, i.e. the percent change in cell density in the fibers during the 6 days of in vivo experiment. The animals were observed regarding behavior and weight gain throughout the experiment. Blood samples (200 μl) were obtained through the orbital plexus after anesthetization with isofluran just before euthanasia, and analyzed for hematological parameters. […]

In data set [2] the test system is Colon cancer patient tumor cells. Description: FMCA, patient tumor samples, colon cancer. The note with it: Homo sapiens. It counts as cell-based. An excerpt: (§1) Cell culture. Patient tumor samples (98) and preparations (4) of normal peripheral blood mononuclear cells (PBMC), detailed in Table 1, were used to determine the activity of VLX50 and, for comparison, six other cytotoxic drugs chosen to represent different mechanistic classes.
(§2) The tumor samples were obtained by bone marrow/peripheral blood sampling, routine surgery or diagnostic biopsy. Leukemic cells and PBMCs were isolated by 1.077 g ml-1 Ficoll-Paque centrifugation (Larsson et al., 1992). Tumor tissue from solid tumor samples was minced into small pieces and tumor cells were isolated by collagenase dispersion followed by Percoll density gradient centrifugation (Csoka et al., 1994). […] Cell viability was determined by trypan blue exclusion test and the proportion of tumor cells in the preparation was judged by inspection of May-Grunvald-Giemsa stained cytospin slides (FIG. 1a). […]
(§3) Fluorometric Microculture Cytotoxicity Assay. The Fluorometric Microculture Cytotoxicity Assay, FMCA, described in detail previously (Lindhagen et al., 2008), is based on measurement of fluorescence generated from hydrolysis of fluorescein diacetate (FDA) to fluorescein by cells with intact plasma membranes. […] Quality criteria for a successful assay included a mean coefficient of variation of less than 30% in the control and a fluorescence signal in control wells of more than 5 times the blank. […]

The subject of data set [3] is MCF-7 cell cultures. Description: Effect of extracellular Fe on VLX50 induced cell death. It counts as cell-based. The conditions noted are these: MCF-7, extracellular iron added.
Data set [4] deals with ROS formation. Description: ROS formation. The conditions noted are these: in contrast to triapine.
The test system of data set [5] is Renal cancer patient tumor cells. Kind of data set: FMCA, patient tumor samples, renal cancer. The conditions noted are these: Homo sapiens. The class given is cell-based.
Text: as §1, §2, §3

Data set [6] relates to Lung cancer patient tumor cells. Kind of data set: FMCA, patient tumor samples, lung cancer. The class given is cell-based. The note with it: Homo sapiens.
Text: as §1, §2, §3

For data set [7], the system named is intracellular free iron in MCF-7 cells. Description: Measurement of intracellular iron (Phen Green). It counts as cell-based. The conditions noted are these: MCF-7, Phen Green fluorescent probe, 100 μM or 500 μM. The source says: Measurement of intracellular iron. The fluorescent membrane permeable Fe sensor, Phen Green (Invitrogen AB, Göteborg, Sweden) was used to measure changes in intracellular free iron concentration. Fluorescence of the PhenGreen indicators is quenched upon binding Fe^2+ and Fe^3+. The emission intensity of the PhenGreen FL indicator depends on both the metal ion's concentration and the indicator's concentration. MCF-7 cells were harvested and diluted to 500,000 per mL in complete medium, loaded with 10 μM PhenGreen diacetate for 45 minutes and plated to flat-bottomed 96W microtiter plates. The plates were washed ×2 with PBS, resuspended in 180 μl PBS per well and subsequently analyzed by a plate reading fluorometer Fluostar Optima which is programmed to scan fluorescence once a minute for 20 minutes with a break after 5 minutes, during which 20 μl PBS, or VLX50 (100 μM or 500 μM) was added.
Mechanism of action. Mechanistic exploration was performed using gene expression analysis of drug treated tumor cell cultures to generate a drug specific signature. The breast cancer cell line MCF-7 was treated with VLX50 or vehicle (DMSO) and analyzed for gene expression using the Affymetrix U1300plus chip. […] This query signature was subsequently submitted to the GSEA and the Connectivity map databases and strong connections to hypoxia inducible factor (HIF1 alfa) and iron chelators were retrieved. […]

The mark [8] stands for this setting: n=6, 72 h FMCA, read-out: Median IC50.
[9] abbreviates: range over n=6 samples, read-out: IC50 Range.

Where two headings read alike, the source gives them in different places.

With `COCCCNC(=S)N/N=C\c1ccccn1` [VLX50, N1-(3-methoxypropyl)-2-(pyridylmethylidene)-hydrazine-1-carbothioamide], the “Growth inhibition (net growth) compared to vehicle” value in data set [1] was “significant growth inhibition”. Further, the IC50 was above 40 µM in data set [2] (setting [8]); 0.49 to 40 µM in data set [2] (setting [9]); above 40 µM in data set [5] (n=7, 72 h FMCA, read-out: Median IC50); 23.8 to 40 µM in data set [5] (range over n=7 samples, read-out: IC50 Range); 13.6 µM in data set [6] (setting [8]); 0.51 to 40 µM in data set [6] (setting [9]). For the same molecule, in data set [3], the “VLX50 activity on adding extracellular iron” value is “dose-dependent decrease”. Moreover, the ROS formation result in data set [4] is reported as “does not appear to induce ROS formation”. Moreover, in data set [7], the Intracellular iron concentration entry is recorded as “decrease”.
